Laboratory results reported in US20090239877A1, “NOVEL 1,2,4-TRIAZOLE DERIVATIVES AND PROCESS OF MANUFACTURING THEREOF” (AETERNA ZENTARIS GmbH, priority 2008, published 2009).

Molecular target: human GHS-R 1a (Homo sapiens, UniProt Q92847)
Experiment: GHS-R 1a receptor-ligand binding assay (membrane preparations from transfected LLC PK-1 cells)
Design: expressed in transfected cells
Details: displacement of 125I-His9-ghrelin; plasma membranes of LLC PK-1 cells transiently transfected with human GHS-R 1a; mean of at least two independent experiments in triplicates
Procedure: II) GHS-R 1a Receptor-Ligand Binding Assay (Membrane Preparations from Transfected LLC PK-1 Cells)
The GHS-R 1a receptor binding/affinity studies were performed according to Guerlavais et al. (J. Med. Chem. 2003, 46: 1191-1203).
Isolated plasma membranes from LLC PK-1 cells, a renal epithelial cell line originally derived from porcine kidneys (ECACC No. 86121112) (10 μg of protein), that were transiently transfected with human GHS-R 1a cDNA (Guerlavais et al., J. Med. Chem. 2003, 46: 1191-1203), were incubated in homogenization buffer HB [50 mM Tris (pH 7.3), 5 mM MgCl2, 2.5 mM EDTA, and 30 μg/mL bacitracin (Sigma)] for 60 min at 25° C. (steady-state conditions) with […] ^125I-His^9-ghrelin (Amersham) in the presence or absence of competing compounds (compounds of the invention).
Nonspecific binding was defined using an excess (10^−6 M) of ghrelin. The binding reaction was stopped by addition of 4 mL of ice-cold HB followed by rapid filtration over Whatman GP/C filters presoaked with 0.5% polyethyleneimine to prevent excessive binding of radioligand to the filters. Filters were rinsed three times with 3 mL of icecold wash buffer [50 mM Tris (pH 7.3), 10 mM MgCl2, 2.5 mM EDTA, and 0.015% (w/v) X-100 Triton], and the radioactivity bound to membranes was measured in a gammacounter (Kontron Analytical Gamma Matic, Automatic gamma counting system).
The concentration of test compounds required to inhibit radiolabelled ghrelin binding by 50% (IC50) was determined by fitting competitive binding curves using non-linear regression (PRISM 3.0, Graph Pad San Diego, USA).
In the following table 2 results obtained for selected compounds of the invention are presented in comparison to an example of the prior art. IC50 values given are the mean of at least two independent experiments performed in triplicates.

human GHS-R 1a, sequence (Q92847 whole entry): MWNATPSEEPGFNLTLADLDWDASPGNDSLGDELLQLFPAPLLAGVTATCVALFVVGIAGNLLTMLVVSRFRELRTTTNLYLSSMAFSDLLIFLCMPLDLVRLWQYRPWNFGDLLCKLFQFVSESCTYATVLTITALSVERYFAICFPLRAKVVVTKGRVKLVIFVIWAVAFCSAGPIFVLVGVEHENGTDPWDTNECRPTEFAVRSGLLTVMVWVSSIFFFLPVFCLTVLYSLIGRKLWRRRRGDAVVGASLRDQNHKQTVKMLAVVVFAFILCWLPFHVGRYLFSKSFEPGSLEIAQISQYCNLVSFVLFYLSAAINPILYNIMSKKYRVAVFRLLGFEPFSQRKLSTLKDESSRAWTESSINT

SMILES | IC50 [nM]
O=C(N[C@H](Cc1c[nH]c2ccccc12)c1nnc(Cc2ccccc2)n1Cc1ccc(Cl)c(Cl)c1)c1cnccn1 [Compound 38, N-((R)-1-(4-(3,4-dichlorobenzyl)-5-benzyl-4H-1,2,4-triazol-3-yl)-2-(1H-indol-3-yl)ethyl)pyrazine-2-carboxamide] | 430
O=C(Cc1ccccn1)N[C@H](Cc1c[nH]c2ccccc12)c1nnc(CCCc2c[nH]c3ccccc23)n1Cc1cccc2ccccc12 [Compound 40, N-((R)-1-(5-(3-(1H-indol-3-yl)propyl)-4-((naphthalen-1-yl)methyl)-4H-1,2,4-triazol-3-yl)-2-(1H-indol-3-yl)ethyl)-2-(pyridin-2-yl)acetamide] | 20.9
O=C(N[C@H](Cc1c[nH]c2ccccc12)c1nnc(CCCc2c[nH]c3ccccc23)n1Cc1cccc2ccccc12)c1ccccn1 [Compound 45, N-((R)-1-(5-(3-(1H-indol-3-yl)propyl)-4-((naphthalen-1-yl)methyl)-4H-1,2,4-triazol-3-yl)-2-(1H-indol-3-yl)ethyl)picolinamide] | 29
O=C(N[C@H](Cc1c[nH]c2ccccc12)c1nnc(CCCc2c[nH]c3ccccc23)n1Cc1cccc2ccccc12)C1CCOCC1 [Compound 46, N-((R)-1-(5-(3-(1H-indol-3-yl)propyl)-4-((naphthalen-1-yl)methyl)-4H-1,2,4-triazol-3-yl)-2-(1H-indol-3-yl)ethyl)-tetrahydro-2H-pyran-4-carboxamide] | 143
O=C(Cc1ccccn1)N[C@H](Cc1c[nH]c2ccccc12)c1nnc(CCc2ccccc2)n1Cc1cccc2ccccc12 [Compound 50, N-((R)-2-(1H-indol-3-yl)-1-(4-((naphthalen-1-yl)methyl)-5-phenethyl-4H-1,2,4-triazol-3-yl)ethyl)-2-(pyridin-2-yl)acetamide] | 107
O=C(N[C@H](Cc1c[nH]c2ccccc12)c1nnc(CCCc2c[nH]c3ccccc23)n1Cc1cccc2ccccc12)c1cnccn1 [Compound 51, N-((R)-1-(5-(3-(1H-indol-3-yl)propyl)-4-((naphthalen-1-yl)methyl)-4H-1,2,4-triazol-3-yl)-2-(1H-indol-3-yl)ethyl)pyrazine-2-carboxamide] | 107
O=C(Cc1ccccn1)N[C@H](Cc1c[nH]c2ccccc12)c1nnc(CCc2c[nH]c3ccccc23)n1Cc1ccc(Cl)c(Cl)c1 [Compound 52, N-((R)-1-(5-(2-(1H-indol-3-yl)ethyl)-4-(3,4-dichlorobenzyl)-4H-1,2,4-triazol-3-yl)-2-(1H-indol-3-yl)ethyl)-2-(pyridin-2-yl)acetamide] | 48
O=C(N[C@H](Cc1c[nH]c2ccccc12)c1nnc(CCc2c[nH]c3ccccc23)n1Cc1ccc(Cl)c(Cl)c1)C1CCCN1 (stereo partly drawn) [Compound 53, N-((R)-1-(5-(2-(1H-indol-3-yl)ethyl)-4-(3,4-dichlorobenzyl)-4H-1,2,4-triazol-3-yl)-2-(1H-indol-3-yl)ethyl)pyrrolidine-2-carboxamide] | 158
COc1ccc(Cn2c(CCc3ccccc3)nnc2[C@@H](Cc2ccc3ccccc3c2)NC(=O)C2CCNCC2)cc1 [Compound 54, N-((R)-1-(4-(4-methoxybenzyl)-5-phenethyl-4H-1,2,4-triazol-3-yl)-2-(naphthalen-2-yl)ethyl)piperidine-4-carboxamide] | 0.3
COc1ccc(Cn2c(CCc3ccccc3)nnc2[C@@H](Cc2ccc3ccccc3c2)NC(=O)C(C)(C)N)cc1 [Compound 55, N-((R)-1-(4-(4-methoxybenzyl)-5-phenethyl-4H-1,2,4-triazol-3-yl)-2-(naphthalen-2-yl)ethyl)-2-amino-2-methylpropanamide] | 13.7
COc1ccc(Cn2c(CCc3ccccc3)nnc2[C@@H](Cc2ccc3ccccc3c2)NC(=O)c2ccccn2)cc1 [Compound 57, N-((R)-1-(4-(4-methoxybenzyl)-5-phenethyl-4H-1,2,4-triazol-3-yl)-2-(naphthalen-2-yl)ethyl)picolinamide] | 0.7
COc1ccc(Cn2c(CCc3c[nH]c4ccccc34)nnc2[C@@H](Cc2ccc3ccccc3c2)NC(=O)c2ccccn2)cc1 [Compound 58, N-((R)-1-(5-(2-(1H-indol-3-yl)ethyl)-4-(4-methoxybenzyl)-4H-1,2,4-triazol-3-yl)-2-(naphthalen-2-yl)ethyl)picolinamide] | 1
COc1ccc(Cn2c(CCc3ccccc3)nnc2[C@@H](Cc2ccc3ccccc3c2)NC(=O)C2CCCN2)cc1 (stereo partly drawn) [Compound 59, N-((R)-1-(4-(4-methoxybenzyl)-5-phenethyl-4H-1,2,4-triazol-3-yl)-2-(naphthalen-2-yl)ethyl)pyrrolidine-2-carboxamide] | 27.8

Continued, values first:

IC50 [nM] | SMILES
707 | O=C(N[C@H](Cc1c[nH]c2ccccc12)c1nnc(CCc2ccccc2)n1CCc1ccccc1)C1CCCCC1 [Compound 62, N-((R)-2-(1H-indol-3-yl)-1-(4,5-diphenethyl-4H-1,2,4-triazol-3-yl)ethyl)cyclohexane-carboxamide]
535 | O=C(N[C@H](Cc1c[nH]c2ccccc12)c1nnc(CCc2ccccc2)n1CCc1ccccc1)c1ccccc1 [Compound 63, N-((R)-2-(1H-indol-3-yl)-1-(4,5-diphenethyl-4H-1,2,4-triazol-3-yl)ethyl)benzamide]
198 | O=C(N[C@H](Cc1c[nH]c2ccccc12)c1nnc(CCc2ccccc2)n1CCc1ccccc1)c1ccccn1 [Compound 64, N-((R)-2-(1H-indol-3-yl)-1-(4,5-diphenethyl-4H-1,2,4-triazol-3-yl)ethyl)picolinamide]
825 | O=C(N[C@H](Cc1c[nH]c2ccccc12)c1nnc(CCc2ccccc2)n1CCc1ccccc1)c1cnccn1 [Compound 66, N-((R)-2-(1H-indol-3-yl)-1-(4,5-diphenethyl-4H-1,2,4-triazol-3-yl)ethyl)pyrazine-2-carboxamide]
0.27 | NCCCC(=O)N[C@H](Cc1c[nH]c2ccccc12)c1nnc(CCc2c[nH]c3ccccc23)n1Cc1cccc2ccccc12 [Compound 67, N-((R)-1-(5-(2-(1H-indol-3-yl)ethyl)-4-((naphthalen-1-yl)methyl)-4H-1,2,4-triazol-3-yl)-2-(1H-indol-3-yl)ethyl)-4-aminobutanamide]
182 | NCCCC(=O)N[C@H](Cc1c[nH]c2ccccc12)c1nnc(CCc2ccccc2)n1Cc1cccc2ccccc12 [Compound 68, N-((R)-2-(1H-indol-3-yl)-1-(4-((naphthalen-1-yl)methyl)-5-phenethyl-4H-1,2,4-triazol-3-yl)ethyl)-4-aminobutanamide]
126 | NCCCC(=O)N[C@H](Cc1c[nH]c2ccccc12)c1nnc(CCCc2c[nH]c3ccccc23)n1Cc1cccc2ccccc12 [Compound 69, N-((R)-1-(5-(3-(1H-indol-3-yl)propyl)-4-((naphthalen-1-yl)methyl)-4H-1,2,4-triazol-3-yl)-2-(1H-indol-3-yl)ethyl)-4-aminobutanamide]
92 | O=C(N[C@H](Cc1c[nH]c2ccccc12)c1nnc(CCc2ccccc2)n1CCc1ccccc1)C1CCNCC1 [Compound 71, N-((R)-2-(1H-indol-3-yl)-1-(4,5-diphenethyl-4H-1,2,4-triazol-3-yl)ethyl)piperidine-4-carboxamide]
150 | CC(C)(N)C(=O)N[C@H](Cc1c[nH]c2ccccc12)c1nnc(CCc2ccccc2)n1Cc1ccc(-c2ccccc2)cc1 [Compound 73, 2-amino-N-((R)-1-(4-(4-phenylbenzyl)-5-phenethyl-4H-1,2,4-triazol-3-yl)-2-(1H-indol-3-yl)ethyl)-2-methylpropanamide]
95 | O=C(N[C@H](Cc1c[nH]c2ccccc12)c1nnc(CCc2ccccc2)n1Cc1ccc(-c2ccccc2)cc1)C1CCNCC1 [Compound 74, N-((R)-1-(4-(4-phenylbenzyl)-5-phenethyl-4H-1,2,4-triazol-3-yl)-2-(1H-indol-3-yl)ethyl)piperidine-4-carboxamide]
12.3 | COc1ccc(Cn2c(CCc3ccccc3)nnc2[C@@H](Cc2cccc3ccccc23)NC(=O)C(C)(C)N)cc1 [Compound 77, N-((R)-1-(4-(4-methoxybenzyl)-5-phenethyl-4H-1,2,4-triazol-3-yl)-2-(naphthalen-1-yl)ethyl)-2-amino-2-methylpropanamide]
2.2 | COc1ccc(Cn2c(CCc3ccccc3)nnc2[C@@H](Cc2cccc3ccccc23)NC(=O)C2CCNCC2)cc1 [Compound 78, N-((R)-1-(4-(4-methoxybenzyl)-5-phenethyl-4H-1,2,4-triazol-3-yl)-2-(naphthalen-1-yl)ethyl)piperidine-4-carboxamide]
1.45 | COc1ccc(Cn2c(CCc3ccccc3)nnc2[C@@H](Cc2cccc3ccccc23)NC(=O)c2ccccn2)cc1 [Compound 79, N-((R)-1-(4-(4-methoxybenzyl)-5-phenethyl-4H-1,2,4-triazol-3-yl)-2-(naphthalen-1-yl)ethyl)picolinamide]
